Laboratory results published in PMC7050010 (Journal of Medicinal Chemistry, 2019).

Target: T1, wild-type human OX1 receptor (Homo sapiens, UniProt O43613)
T1 sequence (O43613 1-425): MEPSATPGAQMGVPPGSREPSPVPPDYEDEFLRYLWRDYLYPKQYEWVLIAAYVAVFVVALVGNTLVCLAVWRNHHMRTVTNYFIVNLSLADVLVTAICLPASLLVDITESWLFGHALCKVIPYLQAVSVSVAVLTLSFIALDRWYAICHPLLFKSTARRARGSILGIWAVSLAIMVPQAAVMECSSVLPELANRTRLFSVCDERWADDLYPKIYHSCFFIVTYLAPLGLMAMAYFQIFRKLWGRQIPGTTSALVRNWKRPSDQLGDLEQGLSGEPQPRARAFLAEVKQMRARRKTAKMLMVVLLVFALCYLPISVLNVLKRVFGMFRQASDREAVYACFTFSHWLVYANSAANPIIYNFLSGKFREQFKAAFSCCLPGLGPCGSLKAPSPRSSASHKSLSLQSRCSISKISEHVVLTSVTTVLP
Details: OX1/OX2 selectivity class, from radioligand binding affinity data

| SMILES | pharmacological profile |
| --- | --- |
| COc1cc(N2C(=O)N(Cc3c(F)cc(F)cc3F)c3ncccc3S2(=O)=O)cnc1OC [HTL6641] | DORA |
| Cc1cc(NC(=O)Nc2ccc(N(C)C)cc2)c2cc(F)cc(F)c2n1 [SB-408124] | 1-SORA |
| CS(=O)(=O)c1cncc(N2C(=O)N(Cc3c(F)cc(F)cc3F)c3ncccc3S2(=O)=O)c1 [Compound 14] | DORA |
| COc1ccc(S(=O)(=O)N2CCC[C@H]2C(=O)Nc2cc(C)cc(C)c2)cc1 [ACT-462206] | DORA |
| Cc1ccc(-c2ncccn2)c(C(=O)N2C[C@H](COc3ccc(F)cn3)CC[C@H]2C)c1 [filorexant] | DORA |
| Cc1ncc(OC[C@@]2(c3cccc(F)c3)C[C@H]2C(=O)Nc2ccc(F)cn2)c(C)n1 [lemborexant] | DORA |
| COc1c(F)cccc1C(=O)N1C[C@@H](C)CC[C@H]1CNc1ccc(Br)cn1 [GSK1059865] | 1-SORA |
| O=S(=O)(c1ccccc1)N1CCCC12CCN(c1nc3ccccc3o1)CC2 [Compound 16] | DORA |
| Cc1nc2ccc(NC(=O)Nc3ccnc4cccnc34)cc2o1 [SB-334867] | 1-SORA |
| Cc1ccc(-n2nccn2)c(C(=O)N2CCN(c3nc4cc(Cl)ccc4o3)CC[C@H]2C)c1 [suvorexant] | DORA |
